Source: patent US7291627B2, “Dihydroimidazo[5.1-a]-beta-carboline derivatives, method for their preparation, and their application as a drug” (MACEF, priority 2001, dated 2007)

System: JA 657 chicks
Assay: Chick sleep/sedation test (IM injection, 90 minute observation)
Type: in vivo
Conditions: for Sed (sedation time as % of the period) / TA (time to torpor between injection and first stage of sleep) / TS (duration of the first sleep) / Tsed (total sedation time over the period): 90 min observation; for TS (mins) Placebo diff'ce: extension of first sleep compared with test controls
Description: The dihydroimidazo[5,1-a]-β-carboline derivatives of the invention, in particular those in the form of the methyl sulfonate, (soluble), were tested in chicks, and certain compounds that were active in the chick were administered in single doses to six Beagle dogs of both sexes for a polysomnographic study of at least 4 hours duration.
JA 657 chicks from Couvoir Gauguet, 44 Le Pin, were accustomed for at least 6 days to an alternating program of light and darkness with 12 hours of daylight and 12 hours of darkness at a regulated temperature of 25±2° C. They were fed ad libitum and were placed under test compounds in a vivarium in groups of 3 individuals with a mean weight of 100±10 g on the day of the test. At that age in this species, there is no effective meningeal (hemato-encephalic) barrier. The test products were injected in 3 doses (1, 3 and 10 mg/kg) intramuscularly (IM) in solution or in an aqueous suspension (1 drop of Tween 80 per ml), each to two batches of 3 chicks which were observed over 90 minutes. For each test series (18 vivaria), there was at least one batch of negative control chicks receiving the same volume (0.2 ml IM) of water for injectable preparations.
During the 90 minute observation period, the chicks were strongly stimulated every 15 minutes by presenting a full feeding trough, and each 5 minute period was given a grade from among the following 5 states, corresponding to the state of alertness over that period:
Mobile, sitting alert, drowsy, asleep, sleep-like state. The parameters studied were the time to torpor (TA) passed between injection and the first stage of sleep, the duration of the first sleep (TS) and the total sedation time over the period (Tsed), expressed in minutes and as a % of the period (Sed).
To compare the results of tests carried out at different dates, the extension of the duration of the first sleep TS compared with the test controls was recorded.

SMILES	Sed (sedation time as % of the period) (Dose: 1 mg/kg)	TA (time to torpor between injection and first stage of sleep) (Dose: 1 mg/kg)	TS (duration of the first sleep) (Dose: 1 mg/kg)	Tsed (total sedation time over the period) (Dose: 1 mg/kg)	TS (mins) Placebo diff'ce (Dose: 1 mg/kg)	Sed (sedation time as % of the period) (Dose: 3 mg/kg)	TA (time to torpor between injection and first stage of sleep) (Dose: 3 mg/kg)	TS (duration of the first sleep) (Dose: 3 mg/kg)	Tsed (total sedation time over the period) (Dose: 3 mg/kg)	TS (mins) Placebo diff'ce (Dose: 3 mg/kg)	Sed (sedation time as % of the period) (Dose: 10 mg/kg)	TA (time to torpor between injection and first stage of sleep) (Dose: 10 mg/kg)	TS (duration of the first sleep) (Dose: 10 mg/kg)	Tsed (total sedation time over the period) (Dose: 10 mg/kg)	TS (mins) Placebo diff'ce (Dose: 10 mg/kg)
CCn1c2c(c3cc(Cl)ccc31)CCn1c-2cnc1C.CS(=O)(=O)O [Example 17, 8-chloro-3-methyl-11-ethyl-5,6-dihydro-imidazo[5,1-a]-β-carboline methane sulfonate]	41.1%	12 min	12 min	37 min	11.7 min	33.3%	7.5 min	23.5 min	30 min	23 min	67.2%	5 min	43.5 min	60.5 min	43 min
CS(=O)(=O)O.Cc1ncc2n1CCc1c-2n(C)c2ccc(Cl)cc12 [Example 16, 8-chloro-3,11-dimethyl-5,6-dihydroimidazo-[5,1-a]-β-carboline methane sulfonate]	41%	11.5 min	15 min	37 min	14.7 min	33.9%	13.5 min	20.5 min	30.5 min	20 min	58.3%	7.5 min	31 min	52.5 min	52 min
CCn1c2c(c3cc(C)ccc31)CCn1c-2cnc1C.CS(=O)(=O)O [Example 20, 11-ethyl-3,8-dimethyl-5,6-dihydroimidazo-[5,1-a]-β-carboline methane sulfonate]	80%	2 min	65.5 min	72 min	57 min	79.4%	1.5 min	51.5 min	71.5 min	43.5 min	97.2%	1.5 min	87.5 min	87.5 min	81.5 min
CS(=O)(=O)O.Cc1ncc2n1CCc1c-2n(C)c2ccc(O)cc12 [Example 10, 8-hydroxy-3,11-dimethyl-5,6-dihydroimidazo-[5,1-a]-β-carboline methane sulfonate]	42.2%	15 min	5 min	38 min	4.7 min	12.2%	30 min	1 min	11 min	0.7 min	30%	11.5 min	12.5 min	27 min	12 min
CCn1c2c(c3ccccc31)CCn1c-2cnc1C.CS(=O)(=O)O [Example 15, 11-ethyl-3-methyl-5,6-dihydroimidazo[5,1-a]-β-carboline methane sulfonate]	23.9%	12.5 min	12 min	21.5 min	21 min	45%	7 min	29.5 min	40.5 min	29 min	80%	1 min	70 min	72 min	69.7 min
COc1ccc2[nH]c3c(c2c1)CCn1cncc1-3 [Example 3, 8-methoxy-5,6-dihydroimidazo[5,1-a]-β-carboline]	73.9%	10 min	40 min	66.51 min	36 min	78.9%	7 min	66.5 min	71.0 min	62.5 min	86.7%	6.5 min	77.5 min	78.0 min	73.5 min
CS(=O)(=O)O.Cc1ccc2c(c1)c1c(n2C)-c2cnc(C)n2CC1 [Example 19, 3,8,11-trimethyl-5,6-dihydroimidazo[5,1-a]-β-carboline methane sulfonate]	49.4%	4 min	17.5 min	44.5 min	11 min	62.8%	3.5 min	46.5 min	56.5 min	38.5 min	75.0%	3.5 min	60 min	67.5 min	52 min
COc1ccc2[nH]c3c(c2c1)CCn1c-3cnc1C(C)C [Example 6, 8-methoxy-3-isopropyl-5,6-dihydroimidazo-[5,1-a]-β-carboline]	73.3%	11 min	56.5 min	65.97 min	52.5 min	80.6%	12.5 min	72.5 min	72.5 min	68.5 min	82.2%	12.5 min	72.5 min	74.0 min	68.5 min
